Assay results taken from EP1530968A1, “Galangin components for the maintenance of bone health and/or treatment, alleviaton and/or prevention of bone disorder” (N.V. Nutricia, priority 2003, dated 2005).
Marks after values point to notes of the source that are not given here.

What was measured:
[1] = system: KS483 (mouse pre-osteoblastic cell line); assay: Alkaline phosphatase (ALP) activity corrected for DNA in KS483 cells after 18 days exposure; format: cell-based; conditions: for ALP activity (mean ± SEM): 18 days, corrected for DNA, compared to control levels
Description: (§1) KS483 (mouse pre-osteoblastic cell line, Leids Universitair […] Centrum, Leiden, The Netherlands) was maintained in phenol red-free alpha-minimum essential medium (α-MEM) containing 10% non-charcoal-treated fetal bovine serum (FBS) and penicillin/streptomycin. Cells were seeded in 12-well plates at a density of 4.5x10^4 cells/well, and cultured in phenol red-free α-MEM supplemented with penicillin/streptomycin and 10% charcoal-treated FBS. Cells were exposed to vehicle (0.01 wt.% DMSO) , β-estradiol as a positive control (10^-8 M and 10^-9 M in 0.01 wt.% DMSO) or galangin (10^-5 M, 10^-6 M and 10^-7 M in 0.01 wt.% DMSO) for 18 days. From day 4 ascorbic acid (50μg/ml), and from day 11 β-glycerolphosphate (5mM) were added to the culture medium. Every 3-4 days the medium was changed. At day 18, cells were washed twice with ice-cold phosphate buffered saline (PBS), frozen immediately, and stored at -20°C for further use. The cells were lysed in 400μl SSC (15 mM sodium citrate and 150 mM sodium chloride) with 0.01% sodium dodecyl sulfate (SDS). Alkaline phosphatase (ALP) activity was determined kinetically in 25μl aliquots by colorimetric determination of the produced p-nitrophenol at 405 nm, using 6 mmol/L p-nitrophenylphosphate as a substrate at a 37°C and pH 10.5. To correct the ALP activity determination for cell quantity, the DNA content was measured in 100μl aliquots, using Hoechst 33258 and calibrated against a DNA standard (0.5-10μg/mL salmon sperm DNA). Fluorescence was measured at a wavelength of 355-460 nm. Calcium deposition (see Table 2) was determined using the cresolphthalein complexon method according to Henri et al, 1974 (Clinical Biochemistry. Principles and Techniques. Harper and Row, New York, USA. All chemicals were obtained from Sigma-Aldrich (Zwijndrecht, The Netherlands). TABLE 1

estrogen receptor = assay: ERE-Luciferase reporter assay in transiently transfected KS483 cells; format: cell-based, mouse; conditions: 48h
Description: (§2) Mouse pre-osteoblastic cell line KS483 was maintained in phenol red-free α-MEM containing 10% non-charcoal-treated FBS and penicillin/streptomycin. Cells were seeded in 24-well plates at a density of 1.6x10^4 cells/well, and cultured in phenol red-free α-MEM supplemented with penicillin/streptomycin and 10% charcoal-treated FBS. After 24 hours, cells were transiently transfected with 0.25 µg luciferase reporter (see below) using a lipid-based FuGENE 6 transfection reagent according to the manufacturer's recommendations (Roche, Almere, Netherlands). Cells were transfected with luciferase reporter, i.e. either estrogen-receptor-responsive element (ERE-Luciferase) or BMP-receptor-responsive element (BRE-Luciferas), hereinafter jointly referred to as luciferase reporter. Transfection efficiency was measured by co-transfection of 25 ng of SV40-Renilla control vector.. The transfection medium was changed after 18 hours into new α-MEM, containing penicillin/streptomycin and 10% charcoal-treated FBS. […] After 48h, cells were washed twice with PBS and frozen at -20°C. Luciferase activity was determined by measuring bioluminescence. Luciferase activity was expressed as fold induction ± SEM, which was corrected for transfection efficiency using sv40-renilla luciferase activity. The measured luciferase activity is indicative for the extent of stimulation of the estrogen receptor or BMP receptor by the test component. Subsequently the ratio ERE stimulation/BRE stimulation (ERE/BRE ratio) was determined, which is indicative for the estrogenic effects of the test component (Table 3).

BMP receptor = assay: BRE-Luciferase reporter assay in transiently transfected KS483 cells; format: cell-based, mouse; conditions: 48h
Description: as §2

[2] = system: estrogen receptor (ERE) and BMP receptor (BRE); assay: Ratio ERE stimulation/BRE stimulation (ERE/BRE ratio) in KS483 cells; format: cell-based, mouse; conditions: for ERE/BRE: ratio ERE stimulation/BRE stimulation
Description: as §2

SAMP6 mice = assay: Bone mineral density by DXA in senescence accelerated mice prone for osteoporosis (SAMP6); format: in vivo; conditions: for BMD-LS change ( BMDLS) after 10 weeks of treatment / Bone mineral density of the lumbar spine (BMD-LS): female SAMP6 mice, E subcutaneous implant; for BMD-LS change ( BMDLS) after 10 weeks of treatment: age 22 to 32 weeks
Source text: (§3) Senescence accelerated mice prone for osteoporosis (SAMP6) and senescence accelerated resistant mice (SAMR) were obtained from Kyoto University, Kyoto, Japan. Mice were bred and kept under specific pathogen free conditions at the Center for small experimental animals in Wageningen. Procedures were approved by the external independent ethical committee for animal care and use (Zeist, The Netherlands). Female SAMP6 mice were randomized on the basis of body weight at the age 20 weeks and divided in 5 groups. […] The galangin was obtained from ICC, Sommerville, NJ, USA. The mice were treated from the age of 22 weeks to the age of 32 weeks. Animals were housed in pairs at 21°C with a 12-hour light/dark cycle in a room without male mice. Until the age of 22 weeks, animals were fed a complete rodent diet, free of flavonoids and isoflavones (RMH-B, Hope Farms, Woerden, The Netherlands). From 22 to 32 weeks of age, animals were fed diets composed according to the RDA of mice (Nutrient requirements of mice, National Academic press, Wahington, USA,1995) and demineralized water. Composition of all diets was identical, except for their galangin contents. All diets and water were supplied ad libitum. Food and water intake and body weight (BW) was registered weekly. Animals were checked daily for abnormal behavior and appearance. […] Implants were replaced after 6 weeks.
(§4) At the age of 22, 25, 28 and 32 weeks, bone mineral density (BMD) and body composition was determined with the aid of Dual energy X-ray absorptiometry (DXA) (Piximus, Lunar Corp, Madison, WI, USA) using the total body mode. Mice were anaesthetized with halothane and front and hind legs were extended. Bone mineral density of the lumbar spine (BMDLS) and the femur (BMDF) were determined within pre-defined regions of interest. Total body fat percentage was determined using the total body mode.

[3] = Body weight, fat percentage, food and water intake and uterus weight in SAMP6 mice; format: in vivo
Source text: as §3, §4

[4] = system: KS483 (mouse pre-osteoblastic cell line); assay: Calcium deposition in KS483 cells (cresolphthalein complexon method); format: cell-based; conditions: for Fold increase of calcium (mean ± SEM): 18 days, compared to control levels
Description: as §1

[5] = age 22 weeks (before start of the intervention), galangin 0.4 mg per 100 g feed
[6] = age 25 weeks, treated from 22 weeks, galangin 0.4 mg per 100 g feed
[7] = age 28 weeks, treated from 22 weeks, galangin 0.4 mg per 100 g feed
[8] = age 32 weeks, treated from 22 weeks, galangin 0.4 mg per 100 g feed
[9] = from 25 weeks of age onwards, subcutaneous implant, intact SAMP6-mice
[10] = compared with control group, SAMP6 mice, galangin throughout the study, E from 25 weeks of age onwards

SMILES	BMD-LS change ( BMDLS) after 10 weeks of treatment (SAMP6 mice; galangin 0.4 mg per 100 g feed)	Bone mineral density of the lumbar spine (BMD-LS) (SAMP6 mice; [5])	Bone mineral density of the lumbar spine (BMD-LS) (SAMP6 mice; [6])	Bone mineral density of the lumbar spine (BMD-LS) (SAMP6 mice; [7])	Bone mineral density of the lumbar spine (BMD-LS) (SAMP6 mice; [8])	ERE (estrogen receptor; 10^-5M)	ERE (estrogen receptor; 10^-6M)	ERE (estrogen receptor; 10^-7M)	BRE (BMP receptor; 10^-5M)	BRE (BMP receptor; 10^-6M)	BRE (BMP receptor; 10^-7M)	ERE/BRE ([2]; 10^-5M)	ERE/BRE ([2]; 10^-6M)	ERE/BRE ([2]; 10^-7M)	also measured
C[C@]12CC[C@@H]3c4ccc(O)cc4CC[C@H]3[C@@H]1CC[C@@H]2O [β-E, 17 β-estradiol]	+23.4 ^a	0.0700 g/cm^2	0.0774 g/cm^2	0.08315 g/cm^2	0.0868 ^a g/cm^2	–	–	–	–	–	–	–	–	–	ALP activity (mean ± SEM) ([1]; 10^-8M): 2.6 ± 0.129^a fold induction; ALP activity (mean ± SEM) ([1]; 10^-9M): 2.5 ± 0.184^a fold induction; ERE (estrogen receptor; 10^-8M): 9.0 fold induction; ERE (estrogen receptor; 10^-9M): 15.8 fold induction; ERE (estrogen receptor; 10^-10M): 20.2 fold induction; BRE (BMP receptor; 10^-8M): 1.0 fold induction; BRE (BMP receptor; 10^-9M): 1.6 fold induction; BRE (BMP receptor; 10^-10M): 1.0 fold induction; ERE/BRE ([2]; 10^-8M): 8.6; ERE/BRE ([2]; 10^-10M): 19.4; BMD-F (SAMP6 mice; [9]): significantly higher; BMD-LS (SAMP6 mice; [9]): significantly higher; Uterus weight ([3]; at 32 weeks of age, compared with control group, SAMP6 mice): significantly higher; body weight [3, 10]: significantly lower; fat percentage [3, 10]: significantly lower; food and water intake [3, 10]: significantly lower
O=c1c(O)c(-c2ccc(O)c(O)c2)oc2cc(O)cc(O)c12 [Q, quercetin]	–	–	–	–	–	7.9 fold induction	1.5 fold induction	1.4 fold induction	1.6 fold induction	1.0 fold induction	0.9 fold induction	5.0	1.6	1.6	–
O=c1c(O)c(-c2ccc(O)cc2)oc2cc(O)cc(O)c12 [K, kaemferol]	–	–	–	–	–	–	–	–	2.4 fold induction	1.4 fold induction	1.1 fold induction	–	–	–	–
O=c1c(O)c(-c2ccccc2)oc2cc(O)cc(O)c12 [Gal, 3,5,7-trihydroxyflavone]	-14.1 ^a	0.0691 g/cm^2	0.0658 g/cm^2	0.0621 g/cm^2	0.0601 ^a g/cm^2	3.8 fold induction	1.0 fold induction	0.9 fold induction	2.0 fold induction	0.9 fold induction	0.9 fold induction	2.0	1.2	1.1	ALP activity (mean ± SEM) ([1]; 10^-5M): 3.7 ± 0.152^a fold induction; ALP activity (mean ± SEM) ([1]; 10^-6M): 1.4 ± 0.055^a fold induction; ALP activity (mean ± SEM) ([1]; 10^-7M): 1.1 ± 0.071 fold induction; ALP activity ([1]; result in words): significantly increased; Fold increase of calcium (mean ± SEM) ([4]; 10^-5M): 2.3 ± 0.160^a fold induction; Fold increase of calcium (mean ± SEM) ([4]; 10^-6M): 1.2 ± 0.132 fold induction; Fold increase of calcium (mean ± SEM) ([4]; 10^-7M): 1.3 ± 0.038 fold induction; Calcium deposition ([4]; after treatment, result in words): significantly increased; ratio ERE/BRE relative to kaempherol and quercitin ([2]; galangin ratio as share of the ratio of kaempherol and quercitin): less than 50%; ERE/BRE ratio ([2]; result in words, galangin as compared to kaempherol and quercetin): low; loss of BMD-LS during the 10-week intervention period compared with controls (SAMP6 mice; 0.04 mg galangin/100 g food (so in the source), SAMP6 mice): significantly lower; % inhibition compared to SAMPC (SAMP6 mice; BMD-LS change after 10 weeks of treatment, galangin 0.4 mg per 100 g feed, SAMP6 mice): 40%; BMD-LS compared with controls (SAMP6 mice; at 32 weeks, 0.4 mg galangin/100 g feed, SAMP6 mice): significantly higher; fat percentage ([3]; mouse, in vivo): No statistical differences; food and water intake ([3]; mouse, in vivo): No statistical differences
